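The compound was tested at five concentrations on cells cultured in 96-well plates, with a 48-hour exposure period. GI50 marks 50% less growth.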 Active and inactive are the calls of the source. Cut-off read from the data, not from the text of the source: active = GI50 up to about 1.1 µM and inactive = higher.

The values that follow come from ChEMBL document CHEMBL1201862, “PubChem BioAssay data set” (2004).

Some test systems named below: 786-0; CAKI-1; CCRF-CEM; COLO 205; EKVX; HCC 2998; HCT-116; KM12; MCF7; MDA-MB-231; NCI-H522; NCI/ADR-RES; SF-295; SN12C; SNB-75; SR; T47D; UACC-257; UO-31; A498.
What all share (assay): NCI anticancer screen, dose series, 48 h

Consider `O/N=C1\C=Cc2nn(-c3ccccc3)nc2\C1=N/O`, for which the GI50 is 6.11 µM (inactive) with 786-0; 4.27 µM (inactive) in the test with CAKI-1; 2.42 µM (inactive) in the test on CCRF-CEM; 3.7 µM (inactive) in the test on COLO 205; 5.41 µM (inactive) with EKVX; 14.5 µM (inactive) in the test on HCC 2998. Also, the GI50 was 2.65 µM (inactive) in the test with HCT-116; 4.55 µM (inactive) in the test on KM12; 2.69 µM (inactive) with MCF7; 4.06 µM (inactive) in the test with MDA-MB-231; 2.94 µM (inactive) in the test with NCI-H522; 7.24 µM (inactive) with NCI/ADR-RES. Also, the GI50 was 4.89 µM (inactive) in the test on SF-295; 7.24 µM (inactive) with SN12C; 15.6 µM (inactive) with SNB-75; 3.64 µM (inactive) in the test with SR; 5.47 µM (inactive) in the test on T47D; 3.11 µM (inactive) in the test on UACC-257. In addition, the GI50 in the test with UO-31 is 3.15 µM (inactive).

For `CCCC[P+](CCCC)(CCCC)C(C(=O)OC)C(C(=O)OC)=C1SC(C(=O)OC)=C(C(=O)OC)S1` (stereo not given), the GI50 in the test on 786-0, in the test with COLO 205, in the test on EKVX, in the test with HCT-116, in the test with MCF7 and with MDA-MB-231 was > 100 µM (inactive) throughout. Also, the GI50 in the test on NCI-H522, in the test on NCI/ADR-RES, in the test with SF-295, in the test on SN12C, in the test on SNB-75 and with SR was > 100 µM (inactive) throughout. Besides, the GI50 in the test with T47D, in the test with UACC-257 and in the test with UO-31 was > 100 µM (inactive) throughout.

Take `C=CCN(Cc1ccncc1)C(=O)C(O)(c1ccccc1)c1ccccc1`: the GI50 is > 100 µM (inactive) in the test with 786-0; 31.5 µM (inactive) with CAKI-1; 35.8 µM (inactive) in the test on CCRF-CEM; 45.8 µM (inactive) in the test with COLO 205; 35.9 µM (inactive) in the test with EKVX; > 100 µM (inactive) in the test with HCC 2998. Also, the GI50 in the test with HCT-116 was 48.2 µM (inactive); in the test on KM12 it was 35.2 µM (inactive); in the test with MCF7, 59.3 µM (inactive); in the test on MDA-MB-231, > 100 µM (inactive); in the test on NCI-H522 it was 34.3 µM (inactive); in the test with NCI/ADR-RES, 17.7 µM (inactive). Moreover, the GI50 in the test on SF-295 is 57.3 µM (inactive); in the test on SN12C, > 100 µM (inactive); in the test with SNB-75, 85.9 µM (inactive); in the test on SR, 32.7 µM (inactive); in the test on T47D, 39.9 µM (inactive); in the test on UACC-257, 79.3 µM (inactive). Moreover, the GI50 with UO-31 was 17.5 µM (inactive).

`CNC(=O)N1CN(c2ccccc2)C2(CCN(Cc3ccccc3)CC2)C1=O`: the GI50 was > 100 µM (inactive) with 786-0; > 100 µM (inactive) in the test with CAKI-1; 53.5 µM (inactive) in the test on CCRF-CEM; 35.6 µM (inactive) in the test with COLO 205; 74.6 µM (inactive) in the test with EKVX; 9.84 µM (inactive) with HCC 2998. Also, the GI50 in the test on HCT-116 is 24.9 µM (inactive); with KM12 it was 29.9 µM (inactive); in the test on MCF7 it was 8.93 µM (inactive); in the test with MDA-MB-231, 19.5 µM (inactive); with NCI-H522, > 100 µM (inactive); in the test with NCI/ADR-RES, 12.2 µM (inactive). Also, the GI50 in the test on SF-295 is > 100 µM (inactive); in the test on SN12C it was > 100 µM (inactive); in the test with SNB-75 it was > 100 µM (inactive); with SR, 15.7 µM (inactive); with T47D it was 1.87 µM (inactive); in the test with UACC-257, > 100 µM (inactive). The GI50 with UO-31 was 11.3 µM (inactive).

Take `CC(=O)NCCSC(=O)c1ccccc1`: the GI50 with 786-0 was 0.0506 µM (active); with CAKI-1, 0.0226 µM (active); in the test on CCRF-CEM, < 0.0153 µM (active); in the test on COLO 205 it was 0.158 µM (active); in the test on EKVX, 2.77 µM (inactive); in the test on HCT-116, 0.0488 µM (active). The GI50 was 0.449 µM (active) in the test on KM12; 0.0653 µM (active) in the test with MCF7; 1.98 µM (inactive) with MDA-MB-231; 0.215 µM (active) in the test on NCI-H522; 0.163 µM (active) in the test with NCI/ADR-RES; 0.147 µM (active) in the test on SF-295. Further, the GI50 in the test with SN12C is 0.0853 µM (active); in the test on SNB-75, 0.741 µM (active); in the test with SR it was 0.0146 µM (active); with T47D, 0.197 µM (active); with UACC-257, 0.19 µM (active); in the test on UO-31, 0.264 µM (active).

Turning to `COc1ccc(/C(Br)=C2\OC(=O)c3ccccc32)cc1`, the GI50 in the test with 786-0, with CAKI-1, with CCRF-CEM, with COLO 205, in the test on EKVX and in the test with HCC 2998 was > 10 µM (inactive) each time. For the same compound, the GI50 with HCT-116, in the test on KM12, in the test with MCF7, in the test on MDA-MB-231, in the test with NCI-H522 and with NCI/ADR-RES was > 10 µM (inactive) in each case. Also, the GI50 with SF-295, in the test with SN12C, in the test with SNB-75, with SR, in the test with T47D and in the test with UACC-257 was > 10 µM (inactive) throughout. Besides, in the test with UO-31, the GI50 is > 10 µM (inactive).

For the compound `O=C1c2cc3ccccc3cc2C2(c3ccc(Cl)cc3)N[C@H]3CCCC[C@@H]3N12` (stereo not given in full), the GI50 in the test on 786-0 is 11.2 µM (inactive); in the test on A498 it was 18.3 µM (inactive); in the test with CAKI-1 it was 22.6 µM (inactive); in the test on CCRF-CEM, 48 µM (inactive); in the test with COLO 205, 15.3 µM (inactive); with EKVX, 10.9 µM (inactive). The GI50 with HCT-116 was 5.68 µM (inactive); in the test with KM12 it was 16.9 µM (inactive); with MCF7, 24.7 µM (inactive); with MDA-MB-231, 13.3 µM (inactive); in the test with NCI/ADR-RES, 14.2 µM (inactive); with SF-295, 13.8 µM (inactive). The GI50 with SN12C was 16.6 µM (inactive); in the test with SNB-75 it was 16.5 µM (inactive); in the test with SR it was 14.7 µM (inactive); in the test on T47D, 7.4 µM (inactive); in the test on UACC-257, 19.4 µM (inactive); in the test on UO-31 it was 18.3 µM (inactive).

As to `Cc1ccc(/C=C2\Sc3scc(-c4ccccc4)[n+]3C2=O)cc1`, the GI50 in the test on 786-0 is 22.3 µM (inactive); in the test on CCRF-CEM, 13.6 µM (inactive); in the test on COLO 205, 20.7 µM (inactive); in the test on EKVX it was 19.3 µM (inactive); in the test on HCC 2998 it was 27.7 µM (inactive); with HCT-116, 21.2 µM (inactive). Further, the GI50 in the test on KM12 was 18.5 µM (inactive); with MCF7 it was 37.5 µM (inactive); in the test with MDA-MB-231, 17.5 µM (inactive); with NCI-H522, 3.4 µM (inactive); in the test with NCI/ADR-RES it was 19.5 µM (inactive); in the test on SF-295 it was 24.6 µM (inactive). Also, the GI50 in the test with SN12C was 21.4 µM (inactive); in the test on SNB-75, 10.8 µM (inactive); in the test with SR it was 5 µM (inactive); in the test with T47D, 48.3 µM (inactive); in the test on UACC-257, 22.8 µM (inactive); in the test with UO-31 it was 14.5 µM (inactive).
